Laboratory results reported in PubChem BioAssay AID1361 (SRMLSC, 2008).
pIC50: −log10 of the molar value. The source made the active and inactive calls. The rule behind the calls is not given here.

Experiment: mitochondrial fusion inhibitors, confirmation, cell-based, chemical genetic, wild-type and mutant (AID 1361)
Conditions: Cell-based mitochondrial fusion phenotype, imaging
[1] = mutant cells, measured here: mutant cell line IC50

Row | Compound | IC50 (WT cells) | pIC50 [1] | pIC50 (WT cells)
1 | Cn1cc(C(=O)c2ccc(Cl)cc2Cl)cc1C(=O)O | > 25 µM (inactive) | < 4.60 | –
2 | O=C(N/C=N/OCc1ccc(Cl)cc1Cl)NOCc1ncc(C(F)(F)F)cc1Cl | – | < 4.60 | 4.80
3 | CCOc1ccc(Cc2c(Cl)nc(SC)nc2N(C)C)cc1 | – | < 4.60 | 4.93
4 | CC(C)(C)[C@H]1C=C(C(=O)N2CCN(Cc3ccc4c(c3)OCO4)CC2)O[C@@H](OCc2ccc(CO)cc2)C1 | – | < 4.60 | 5.00
5 | Cc1ccc(OCCSc2nc(NC(C)C)nc(NC(C)C)n2)cc1 | – | < 4.60 | 4.91
6 | CCCCNC(=O)C1=C(N)C(C(=O)Nc2ccc(C)c(S(=O)(=O)N3CCCCC3)c2)SC1=Nc1ccc(C)cc1C (configuration not stated) | > 25 µM (inactive) | < 4.60 | –
7 | CN(C)C(=O)CSc1nnc(CCCCCNC(=O)OC(C)(C)C)o1 | > 25 µM (inactive) | < 4.60 | –
8 | COc1ccc(C(=NNc2ccccc2C(=O)O)c2ccc(OC)cc2)cc1 | – | < 4.60 | 4.75
9 | CC1(C)C=Cc2c(c3c(c4c(=O)c(-c5ccc(O)cc5)coc24)OC(C)(C)CC3)O1 | – | 4.61 | 4.85
10 | O=C(CCc1ccccc1)Nc1nnc(-c2ccc3c(c2)CCCC3)o1 | – | < 4.60 | 5.06
11 | CC(C)N1C(=S)SC(C)(C)C1n1oc(=O)n(-c2ccc(Cl)c(Cl)c2)c1=O (configuration not stated) | > 25 µM (inactive) | < 4.60 | –
12 | CC(C)C(=O)N(c1cc2sc(=O)oc2c2ccccc12)S(=O)(=O)c1cccs1 | – | 4.68 | 5.13
13 | CSc1nnc(C2CCNCC2)n1C | > 25 µM (inactive) | < 4.60 | –
14 | CCOC(=O)C1=C(NC(=S)NC(=O)c2ccccc2)c2ccccc2CC12CCCC2 | – | < 4.60 | 5.20
15 | CCOc1ccc(-c2nc(N)ncc2Oc2ccccc2Br)c(O)c1 | > 25 µM (inactive) | < 4.60 | –
16 | COc1ccccc1CNC(=O)c1ccc(-c2ccccc2C(F)(F)F)o1 | – | < 4.60 | 4.67
17 | NC(=O)c1ccc(NC(=O)CCCN2C(=O)c3ccccc3C2=O)cc1 | > 25 µM (inactive) | < 4.60 | –
18 | c1ccc(CC2CCN(c3nnnn3-c3ccccc3)CC2)cc1 | > 25 µM (inactive) | < 4.60 | –
19 | Clc1ccc(-c2csc3ncnc(N4CCc5ccccc5C4)c23)cc1 | – | < 4.60 | 5.00
20 | Cc1ccc(C(C)C)cc1OCC(=O)N/N=C/c1ccc2c(c1)OCCO2 | – | < 4.60 | 4.74
21 | O=C(Nc1ccccc1N1CCOCC1)c1cccc(F)c1 | – | 4.66 | 5.03

Row | Compound | IC50 (WT cells) | pIC50 [1] | pIC50 (WT cells)
22 | CC(C)N=c1scc(-c2cccs2)n1/N=C/c1ccc(O)c(O)c1O | > 25 µM (inactive) | < 4.60 | –
23 | O=c1cc(N2CCCCC2)c(-c2ccccc2)nn1Cc1c(Cl)cccc1Cl | – | < 4.60 | 5.27
24 | Cc1cc(N=Cc2cc(Cl)ccc2O)no1 | > 25 µM (inactive) | < 4.60 | –
25 | COc1ccc(/C=C/C(=O)N2CCN(c3ccccn3)CC2)c2ccccc12 | – | < 4.60 | 4.70
26 | O=c1[nH]c(=O)n(Cc2ccco2)c2c1C(C(F)(F)F)(C(F)(F)F)N=C(Cc1ccccc1)N2 | > 25 µM (inactive) | < 4.90 | –
27 | CCOC(=O)/C(=C/c1ccc(N2CCC(c3ccccc3)=N2)cc1)C(C)=O | > 25 µM (inactive) | < 4.60 | –
28 | CC12CCC(O)CC1=CCC1C2CCC2(C)C1CCC21CCC(=O)O1 (configuration not stated) | – | < 4.60 | 4.82
29 | O=S(=O)(Nc1ccc(O)c(Sc2nc3ccccc3s2)c1)c1cccc2ccccc12 | – | < 4.60 | 4.97
30 | CCc1cc(-c2n[nH]c(=S)n2-c2ccccc2C)cs1 | > 25 µM (inactive) | < 4.60 | –
31 | N#CC(C#N)=c1ccc2c(c1)N1C3=C(CCCC3)CC3CCCCC31N=2 (configuration not stated) | – | 5.11 | 5.47
32 | COc1ccc(N/C(N)=N/c2nc(CSc3ccc(C)cc3)cc(=O)[nH]2)cc1 | > 25 µM (inactive) | < 4.60 | –
33 | COc1ccc(CCN(Cc2cc3cc(C)cc(C)c3nc2Cl)C(=O)C2CC2)cc1 | – | < 4.60 | 5.12
34 | CN1CC(c2ccccc2)C2(SC(=S)N(Cc3ccco3)C2=O)C12C(=O)Nc1ccccc12 (configuration not stated) | – | 4.92 | 5.16
35 | CC(C)(C)c1ccc(OCC(=O)N2CCCCCC2)c(Br)c1 | > 25 µM (inactive) | < 4.60 | –
36 | O=C(CCCCCN1C(=O)c2ccccc2C1=O)Nc1ccc(S(=O)(=O)N2CCCCC2)cc1 | > 25 µM (inactive) | < 4.90 | –
37 | CCCCSc1cnn(-c2ccccc2)c(=O)c1SCCCC | – | < 4.60 | 4.90
38 | COC(=O)c1ccc(C2C3=C(Nc4nnnn42)c2ccccc2OC3)cc1 (configuration not stated) | > 25 µM (inactive) | < 4.60 | –
39 | NC(=S)n1[nH]c(-c2ccc([N+](=O)[O-])cc2)c(N=Nc2ccc(Cl)cc2)c1=O | – | < 4.60 | 5.08
40 | CCCOC(=O)c1ccc(Oc2cn[nH]c2-c2ccc(OC)cc2O)cc1 | – | 4.66 | 4.95
41 | O=S(=O)(NCCOCCNS(=O)(=O)c1ccccc1)c1ccccc1 | > 25 µM (inactive) | < 4.60 | –
